# Experimental data taken from patent US20250325508A1, “MODULATORS OF PROTEASOME DYNAMICS AND/OR FUNCTION, COMPOSITIONS, METHODS, AND THERAPEUTIC USES THEREOF” (TECHNION RESEARCH & DEVELOPMENT FOUNDATION LIMITED, priority 2022, published 2025).
# Tests used:
# Format in all cases: cell-based, human
# [1] = tested on: HeLa cells; assay: Amino acids level measurement (LC-MS)
# Procedure: Metabolic analysis was carried out as previously described [G. M. MacKay et al., 1st Ed. (Elsevier Inc., 2015)]. Briefly, cells were rapidly washed 3 times with ice-cold PBS and extracted with an aqueous solution of 50% Methanol, and 30% Acetonitrile. Samples were centrifuged at 16,000×g for 10 min at 4° C., and the supernatants were analyzed using HPLC-MS (Q-Exactive Orbitrap Mass Spectrometer (Thermo Scientific) coupled to Thermo Scientific UltiMate 3000 HPLC system). The HPLC setup consisted of a ZIC-PHILIC column (SeQuant, 150×2.1 mm, 5 μm, Merck) with a ZIC-PHILIC guard column (SeQuant, 20×2.1 mm). The aqueous mobile phase solvent was 20 mM ammonium carbonate adjusted to pH 9.4 with 0.1% ammonium hydroxide. The organic mobile phase was acetonitrile. Amino acids and other metabolites were separated over a 15 min linear gradient from 80% organic to 80% aqueous. The column temperature was 45° C., the flow rate 200 μl/min, and the run time 27 min. All metabolites were detected across a mass range of 75-1,000 m/z using the Q-Exactive mass spectrometer at a resolution of 35,000 (at 200 m/z) with electrospray ionization and polarity switching mode. Mass accuracy obtained for all metabolites was below 5 ppm. Data were acquired with Thermo Xcalibur software. The peak areas of different amino acids were determined using Thermo TraceFinder software through which metabolites were identified by the exact mass of the singly charged ion and the known retention time on the HPLC column. Commercially available standard compounds had been analyzed before to determine ion masses and retention times on the ZIC-PHILIC column. Protein quantitation based on the Lowry method was performed for normalization. The figure presents mean+/−SD of three replicates.
# [2] = tested on: autophagy; assay: Autophagy (LC3 lipidation, RFP-GFP-LC3 autophagic flux); settings: LC3 Western blot and GFP-RFP-LC3 autophagic flux, HeLa cells
# Procedure: Cells were washed twice with ice cold PBS and scraped into lysis buffer (50 mM Tris-HCl, pH 7.4, 130 mM NaCl, 0.5% NP-40) supplemented with freshly added protease inhibitor cocktail, 5 mM ATP, 10 mM iodoacetamide, and 5 mM N-ethyl maleimide. Protein concentration was measured by the BCA assay according to the manufacturer's instructions (Pierce, Rockford, IL). 30 μg of cellular protein were resolved via SDS-PAGE, transferred to a nitrocellulose membrane and immunoblotted with the appropriate antibody. Cells stably expressing the fusion of RFP-GFP-LC3 were treated as described and were visualized live, using high-throughput fluorescence microscopy (IXM-C, Molecular Devices) under controlled environment (21% O2, 5% CO2, 37° C.). Analysis of autophagic flux was made based on the differential signal in the green and red channels, as previously described [[…], et al. (2009). Cell 136, 521-534] Due to the instability of GFP in acidic pH, only RFP retains its fluorescence in the acidic lysosome, while both are visible in the autophagosome. The RFP: GFP puncta ratio is indicating the extent of autophagy activation, or flux. The figure presents mean+/-SD and Student's T-Test p-values of three replicates.
# [3] = tested on: HeLa cells; assay: Degradation of radiolabeled proteins; settings: short-term starvation
# Procedure: Cells were labeled with [^35S]-methionine and cysteine (20 μCi/ml) for 16 h. This was followed by extensive washing and further incubation in a medium containing 2 mM of the two unlabeled amino acids for 8 h. Degradation rates were assessed by determining the release of labeled amino acids to the incubation medium relative to the radioactivity remained in the cellular proteins (using Trichloroacetic acid precipitation to separate between the two) [R. Gropper et al., Biomed Biochim Acta 50, 321-332 (1991)]. The figure presents mean+/−SD and Student's T-Test p-values of three replicates.
# [4] = tested on: proteasome; assay: Live imaging of proteasome activity probe Me4BodipyFL-Ahx3Leu3VS; settings: addition to the starvation medium, HeLa cells
# Procedure: Live cell proteasome activity was followed as previously described [C. R. Berkers et al., Mol Pharm 4, 739-748 (2007)]. In brief, Me4BodipyFL-Ahx3Leu3VS was added to the medium to a final concentration of 1 μM. Following incubation for 15 min, the cells were visualized by a Zeiss LSM 700 confocal microscope. In vitro proteasome activity assay was carried out as previously described [O. Braten et al., Proc. Natl. Acad. Sci. 113, E4639-47 (2016)]. In brief, cellular fractions were incubated at 37° C. for 30 min with 5 μM Suc-LLVY-AMC (Succinyl-Leu-Leu-Val-Tyr-amido-4-methylcoumarin) in a reaction buffer (40 mM Tris-HCl pH 7.2, 2 mM DTT, 5 mM MgCl2, 10 mM creatine phosphate, 0.1 mg/ml creatine phosphate kinase, 5 mM ATP). Reactions were stopped by adding 1% SDS, and fluorescence was measured at 360/460 nm (ex/em).
compound,measurement,setting,value
CCC(=C/[C@H](C)C/C=C/C(C)=C/[C@@H](C)C(=O)[C@@H](C)[C@H](O)[C@@H](C)C/C(C)=C/C(=O)O)/C=C/[C@@H]1OC(=O)C=C[C@@H]1C [Leptomycin B],gain in amino acids produced by Torin1,[1]; Torin1 plus LMB,significantly inhibited the gain in amino acids produced by Torin1
same,level of Glu,[1]; addition of LMB to Torin1-treated cells,unaffected
same,autophagy under starvation,[2],not inhibited
same,protein breakdown (degradation of radiolabeled proteins),[3],near annulment of protein breakdown stimulated by short-term starvation
same,localization of proteasomal activity (nucleus vs cytosol),[4],preventing the shift in its dominance from the nucleus to the cytosol
